# Source: patent US7803797B2, “Substituted arylcyclopentenes as therapeutic agents” (Allergan, Inc., priority 2008, dated 2010)
# Legend:
# Type in all cases: in vivo
# normotensive dogs = assay: Intraocular pressure (IOP) reduction in normotensive dogs
# Protocol: Compounds 14a, 14b, 16a, 16b. 22a, 22b, 33a, 33b, 34a, 34b, 35a, 35b, 46a, 46b, 51a, 51 b, 58a, 58b, 69a, 69b, 70a and 70b from above are tested in vivo to measure its ability to reduce intraocular pressure. Compound 14a is tested in normotensive dogs.
# [1] = test system: laser-induced hypertensive monkeys; assay: Intraocular pressure (IOP) reduction in laser-induced hypertensive monkeys
# [2] = test system: lashes and adjacent hairs of the eyelids; assay: Clinical observation of lashes in glaucoma patients treated in one eye; conditions: glaucoma patients treated in only one eye
# Text: In the course of treating patients having glaucoma, treatment may only be appropriate in one eye. […] The lash appearance on the lids of the treated eyes would have appeared quite attractive if it represented a bilateral phenomenon. As a result of its asymmetric nature, the long lashes on one side could be construed as disturbing from a cosmetic standpoint. A systemic examination was preformed as a result of the asymmetric phenomenon. It soon became apparent that this altered appearance was not an isolated finding. […] Definite differences could be identified to varying degrees in the lashes and adjacent hairs of all patients who were taking the drug on a unilateral basis for longer than 6 months.
# The changes in the lashes were apparent on gross inspection in several patients once attention was focused on the issue. In those with light colored hair and lashes, the differences were only seen easily with the aid of the high magnification and lighting capabilities of the slit lamp biomicroscope. In the course of glaucoma follow-up examination, attention is generally immediately focused on the eye itself. As a result of the high power magnification needed only one eye is seen at a time and the eye is seen at a high enough power that the lashes are not in focus. […]
SMILES,intraocular pressure (IOP) change from baseline (normotensive dogs),IOP change from baseline [1],"lash appearance, treated eye versus non-treated eye [2]"
O=C(OCCN1CCOCC1)c1ccc(CCC[C@@H]2[C@@H](COc3cc(Cl)cc(CO)c3)CC[C@H]2Cl)s1 [51 b],decreases from baseline,decreases from baseline,
O=C(CCC/C=C\C[C@@H]1[C@@H](COc2cc(Cl)cc(CCO)c2)[C@H](O)C[C@H]1Cl)OCCO [Compound 14a],decreases from baseline,decreases from baseline,
O=C(CCC/C=C\C[C@@H]1[C@@H](COc2cc(Cl)cc(CCO)c2)[C@H](O)C[C@H]1Cl)OCCN1CCOCC1 [Compound 14b],decreases from baseline,decreases from baseline,
CC(=O)OCCc1cc(Cl)cc(OC[C@@H]2[C@@H](C/C=C\CCCC(=O)OCCO)[C@H](Cl)C[C@H]2O)c1 [Compound 16a],decreases from baseline,decreases from baseline,
CC(=O)OCCc1cc(Cl)cc(OC[C@@H]2[C@@H](C/C=C\CCCC(=O)OCCN3CCOCC3)[C@H](Cl)C[C@H]2O)c1 [Compound 16b],decreases from baseline,decreases from baseline,
COCc1cc(Cl)cc(OC[C@@H]2[C@@H](C/C=C\CCCC(=O)OCCO)[C@H](Cl)C[C@H]2O)c1 [Compound 22a],decreases from baseline,decreases from baseline,
COCc1cc(Cl)cc(OC[C@@H]2[C@@H](C/C=C\CCCC(=O)OCCN3CCOCC3)[C@H](Cl)C[C@H]2O)c1 [Compound 22b],decreases from baseline,decreases from baseline,
O=C(OCCO)c1ccc(CCC[C@@H]2[C@@H](COc3cc(Cl)cc(Cl)c3)[C@H](O)C[C@H]2Cl)s1 [Compound 33a],decreases from baseline,decreases from baseline,
O=C(OCCN1CCOCC1)c1ccc(CCC[C@@H]2[C@@H](COc3cc(Cl)cc(Cl)c3)[C@H](O)C[C@H]2Cl)s1 [Compound 33b],decreases from baseline,decreases from baseline,
Cc1cc(C)cc(OC[C@@H]2[C@@H](CCCc3ccc(C(=O)OCCO)s3)[C@H](Cl)C[C@H]2O)c1 [Compound 35a],decreases from baseline,decreases from baseline,
Cc1cc(C)cc(OC[C@@H]2[C@@H](CCCc3ccc(C(=O)OCCN4CCOCC4)s3)[C@H](Cl)C[C@H]2O)c1 [Compound 35b],decreases from baseline,decreases from baseline,
O=C(OCCO)c1ccc(CCC[C@H]2C(=O)CC[C@@H]2COc2cc(Cl)cc(CO)c2)s1 [Compound 46a],decreases from baseline,decreases from baseline,
O=C(OCCN1CCOCC1)c1ccc(CCC[C@H]2C(=O)CC[C@@H]2COc2cc(Cl)cc(CO)c2)s1 [Compound 46b],decreases from baseline,decreases from baseline,
O=C(OCCO)c1ccc(CCC[C@@H]2[C@@H](COc3cc(Cl)cc(CO)c3)CC[C@H]2Cl)s1 [Compound 51a],decreases from baseline,decreases from baseline,
N#C[C@@H]1C[C@@H](O)[C@H](COc2cc(Cl)cc(Cl)c2)[C@H]1CCCc1ccc(C(=O)OCCO)s1 [Compound 58a],decreases from baseline,decreases from baseline,
N#C[C@@H]1C[C@@H](O)[C@H](COc2cc(Cl)cc(Cl)c2)[C@H]1CCCc1ccc(C(=O)OCCN2CCOCC2)s1 [Compound 58b],decreases from baseline,decreases from baseline,
O=C(OCCO)c1ccc(CCCC2=CC[C@@H](O)[C@@H]2COc2cc(Cl)cc(Cl)c2)s1 [Compound 69a],decreases from baseline,decreases from baseline,
O=C(OCCN1CCOCC1)c1ccc(CCCC2=CC[C@@H](O)[C@@H]2COc2cc(Cl)cc(Cl)c2)s1 [Compound 69b],decreases from baseline,decreases from baseline,
O=C(OCCO)c1ccc(CCC[C@@H]2[C@@H](COc3cc(Cl)cc(Cl)c3)[C@H](O)C[C@H]2F)s1 [Compound 70a],decreases from baseline,decreases from baseline,
O=C(OCCN1CCOCC1)c1ccc(CCC[C@@H]2[C@@H](COc3cc(Cl)cc(Cl)c3)[C@H](O)C[C@H]2F)s1 [Compound 70b],decreases from baseline,decreases from baseline,
CCNC(=O)CCC/C=C\C[C@@H]1[C@@H](/C=C/[C@@H](O)CCc2ccccc2)[C@H](O)C[C@@H]1O [bimatoprost],,,"longer, thicker, and fuller in the treated eye than in the non-treated eye"
